# Data taken from ChEMBL document CHEMBL1141502, “Synthesis of hybrid acetogenins, alpha,beta-unsaturated-gamma-lactone-free nitrogen-containing heterocyclic analogues, and their cytotoxicity against human cancer cell lines” (2008).
# What was measured:
# Format in all cases: functional
# [1] = Antiproliferative activity against human HBC4 cells by sulforhodamine B assay relative to control
# MKN-28 = test: Antiproliferative activity against human MKN28 cells by sulforhodamine B assay relative to control
# NCI-H460 = test: Antiproliferative activity against human NCI-H460 cells by sulforhodamine B assay relative to control
# MKN-45 = test: Antiproliferative activity against human MKN45 cells by sulforhodamine B assay relative to control
# SF-268 = test: Antiproliferative activity against human SF268 cell by sulforhodamine B assay relative to control
# NCI-H23 = test: Antiproliferative activity against human NCI-H23 cells by sulforhodamine B assay relative to control
# [2] = Antiproliferative activity against human HBC5 cells by sulforhodamine B assay relative to control
# ACHN = test: Antiproliferative activity against human ACHN cells by sulforhodamine B assay relative to control
# [3] = Antiproliferative activity against human OVACR8 cells by sulforhodamine B assay relative to control
# St-4 = test: Antiproliferative activity against human St4 cells by sulforhodamine B assay relative to control
# [4] = Antiproliferative activity against human MKN1 cells by sulforhodamine B assay relative to control; conditions: MKN-1
# DMS-114 = test: Antiproliferative activity against human DMS114 cells by sulforhodamine B assay relative to control
# HCT-15 = test: Antiproliferative activity against human HCT15 cells by sulforhodamine B assay relative to control
# SNB-75 = test: Antiproliferative activity against human SNB75 cells by sulforhodamine B assay relative to control
# SNB-78 = test: Antiproliferative activity against human SNB78 cells by sulforhodamine B assay relative to control
# MDA-MB-231 = test: Antiproliferative activity against human MDA-MB-231 cells by sulforhodamine B assay relative to control
# SK-OV-3 = test: Antiproliferative activity against human SKOV3 cells by sulforhodamine B assay relative to control
# MKN-7 = test: Antiproliferative activity against human MKN7 cells by sulforhodamine B assay relative to control
# DMS-273 = test: Antiproliferative activity against human DMS273 cells by sulforhodamine B assay relative to control
# LOX IMVI = test: Antiproliferative activity against human LOX IMVI cells by sulforhodamine B assay relative to control
# HCT-116 = test: Antiproliferative activity against human HCT116 cells by sulforhodamine B assay relative to control
# SF-295 = test: Antiproliferative activity against human SF295 cells by sulforhodamine B assay relative to control
# DU-145 = test: Antiproliferative activity against human DU145 cells by sulforhodamine B assay relative to control
# HCC 2998 = test: Antiproliferative activity against human HCC2998 cells by sulforhodamine B assay relative to control
# [5] = Antiproliferative activity against human OVACR5 cells by sulforhodamine B assay relative to control
# [6] = Antiproliferative activity against human RXF631L cells by sulforhodamine B assay relative to control; conditions: RXF 631
# U-251 = test: Antiproliferative activity against human U251 cells by sulforhodamine B assay relative to control
# MCF7 = test: Antiproliferative activity against human MCF7 cells by sulforhodamine B assay relative to control
# MKN-74 = test: Antiproliferative activity against human MKN74 cells by sulforhodamine B assay relative to control
# PC-3 = test: Antiproliferative activity against human PC3 cells by sulforhodamine B assay relative to control
# HT-29 = test: Antiproliferative activity against human HT29 cells by sulforhodamine B assay relative to control
# SF-539 = test: Antiproliferative activity against human SF539 cells by sulforhodamine B assay relative to control
# [7] = Antiproliferative activity against human OVACR4 cells by sulforhodamine B assay relative to control
# KM12 = test: Antiproliferative activity against human KM12 cells by sulforhodamine B assay relative to control
# A549 = test: Antiproliferative activity against human A549 cells by sulforhodamine B assay relative to control
# NCI-H522 = test: Antiproliferative activity against human NCI-H522 cells by sulforhodamine B assay relative to control
# [8] = Antiproliferative activity against human OVACR3 cells by sulforhodamine B assay relative to control
# [9] = Antiproliferative activity against human BSY1 cells by sulforhodamine B assay relative to control; conditions: BSY-1
# NCI-H226 = test: Antiproliferative activity against human NCI-H226 cells by sulforhodamine B assay relative to control
Structure (SMILES),GI50 (MKN-28),GI50 (NCI-H460),GI50 (MKN-45),GI50 (NCI-H23),GI50 (ACHN),GI50 (HCT-15),GI50 (MDA-MB-231),GI50 (SK-OV-3),GI50 (MKN-7),GI50 [1],GI50 (SF-268),GI50 [2],GI50 [3],GI50 (St-4),GI50 [4],GI50 (DMS-114),GI50 (SNB-75),GI50 (SNB-78),GI50 (DMS-273),GI50 (LOX IMVI),other results
CCCCCCCCCCCC[C@@H](O)[C@H]1CC[C@H]([C@H](O)CCCCCCCCCCCCc2ccnn2C)O1,4.4 µM,> 100 µM,> 100 µM,0.91 µM,88 µM,> 100 µM,32 µM,77 µM,6.2 µM,> 100 µM,> 100 µM,69 µM,> 100 µM,65 µM,> 100 µM,0.55 µM,> 100 µM,> 100 µM,49 µM,> 100 µM,GI50 (HCT-116): 9.2 µM; GI50 (SF-295): 24 µM; GI50 (DU-145): > 100 µM; GI50 (HCC 2998): 80 µM; GI50 [5]: > 100 µM; GI50 [6]: > 100 µM; GI50 (U-251): > 100 µM; GI50 (MCF7): 27 µM; GI50 (MKN-74): 23 µM; GI50 (PC-3): > 100 µM; GI50 (HT-29): 76 µM; GI50 (SF-539): 37 µM; GI50 [7]: 37 µM; GI50 (KM12): 71 µM; GI50 (A549): 31 µM; GI50 (NCI-H522): 3.8 µM; GI50 [8]: > 100 µM; GI50 [9]: 32 µM; GI50 (NCI-H226): 52 µM
CCCCCCCCCCCC[C@@H](O)[C@H]1CC[C@H]([C@H](O)CCCCCCCCCCCCc2cnn(C)c2)O1,19 µM,> 100 µM,> 100 µM,13 µM,> 100 µM,> 100 µM,> 100 µM,> 100 µM,5.4 µM,> 100 µM,> 100 µM,> 100 µM,> 100 µM,> 100 µM,> 100 µM,2.1 µM,23 µM,81 µM,> 100 µM,9.5 µM,GI50 (HCT-116): 70 µM; GI50 (SF-295): 24 µM; GI50 (DU-145): > 100 µM; GI50 (HCC 2998): > 100 µM; GI50 [5]: > 100 µM; GI50 [6]: > 100 µM; GI50 (U-251): > 100 µM; GI50 (MCF7): > 100 µM; GI50 (MKN-74): > 100 µM; GI50 (PC-3): > 100 µM; GI50 (HT-29): > 100 µM; GI50 (SF-539): 37 µM; GI50 [7]: > 100 µM; GI50 (KM12): > 100 µM; GI50 (A549): > 100 µM; GI50 (NCI-H522): 12 µM; GI50 [8]: > 100 µM; GI50 [9]: > 100 µM; GI50 (NCI-H226): 56 µM
CCCCCCCCCCCC[C@@H](O)[C@H]1CC[C@H]([C@H](O)CCCCCCCCCCCCc2cnc(N)nc2)O1,40 µM,> 100 µM,> 100 µM,36 µM,> 100 µM,> 100 µM,> 100 µM,56 µM,9.4 µM,> 100 µM,> 100 µM,> 100 µM,90 µM,> 100 µM,> 100 µM,4.8 µM,27 µM,> 100 µM,> 100 µM,58 µM,GI50 (HCT-116): > 100 µM; GI50 (SF-295): 56 µM; GI50 (DU-145): > 100 µM; GI50 (HCC 2998): 89 µM; GI50 [5]: > 100 µM; GI50 [6]: > 100 µM; GI50 (U-251): > 100 µM; GI50 (MCF7): > 100 µM; GI50 (MKN-74): > 100 µM; GI50 (PC-3): > 100 µM; GI50 (HT-29): 90 µM; GI50 (SF-539): 62 µM; GI50 [7]: > 100 µM; GI50 (KM12): > 100 µM; GI50 (A549): > 100 µM; GI50 (NCI-H522): 22 µM; GI50 [8]: > 100 µM; GI50 [9]: > 100 µM; GI50 (NCI-H226): 44 µM
CCCCCCCCCCCC[C@@H](O)[C@H]1CC[C@H]([C@H](O)CCCCCCCCCCCCC2=C[C@H](C)OC2=O)O1 [REL-SOLAMIN],14 µM,> 100 µM,> 100 µM,73 µM,> 100 µM,> 100 µM,> 100 µM,> 100 µM,13 µM,> 100 µM,> 100 µM,> 100 µM,> 100 µM,> 100 µM,> 100 µM,4.3 µM,> 100 µM,> 100 µM,> 100 µM,29 µM,GI50 (HCT-116): > 100 µM; GI50 (SF-295): 40 µM; GI50 (DU-145): > 100 µM; GI50 (HCC 2998): > 100 µM; GI50 [5]: > 100 µM; GI50 [6]: > 100 µM; GI50 (U-251): > 100 µM; GI50 (MCF7): 71 µM; GI50 (MKN-74): > 100 µM; GI50 (PC-3): > 100 µM; GI50 (HT-29): > 100 µM; GI50 (SF-539): > 100 µM; GI50 [7]: > 100 µM; GI50 (KM12): > 100 µM; GI50 (A549): > 100 µM; GI50 (NCI-H522): 58 µM; GI50 [8]: > 100 µM; GI50 [9]: > 100 µM; GI50 (NCI-H226): > 100 µM

# More lines, in order of falling GI50 (MKN-28), values ahead:
GI50 (MKN-28),GI50 (NCI-H460),GI50 (MKN-45),GI50 (NCI-H23),GI50 (ACHN),GI50 (HCT-15),GI50 (MDA-MB-231),GI50 (SK-OV-3),GI50 (MKN-7),Structure (SMILES),GI50 [1],GI50 (SF-268),GI50 [2],GI50 [3],GI50 (St-4),GI50 [4],GI50 (DMS-114),GI50 (SNB-75),GI50 (SNB-78),GI50 (DMS-273),GI50 (LOX IMVI),other results
48 µM,> 100 µM,> 100 µM,28 µM,> 100 µM,> 100 µM,> 100 µM,74 µM,27 µM,CCCCCCCCCCCC[C@@H](O)[C@H]1CC[C@H]([C@H](O)CCCCCCCCCCCCc2ncccn2)O1,> 100 µM,> 100 µM,50 µM,> 100 µM,> 100 µM,> 100 µM,16 µM,32 µM,> 100 µM,92 µM,12 µM,GI50 (HCT-116): > 100 µM; GI50 (SF-295): > 100 µM; GI50 (DU-145): > 100 µM; GI50 (HCC 2998): > 100 µM; GI50 [5]: > 100 µM; GI50 [6]: > 100 µM; GI50 (U-251): > 100 µM; GI50 (MCF7): 79 µM; GI50 (MKN-74): 69 µM; GI50 (PC-3): > 68 µM; GI50 (HT-29): > 100 µM; GI50 (SF-539): 41 µM; GI50 [7]: 38 µM; GI50 (KM12): > 100 µM; GI50 (A549): > 100 µM; GI50 (NCI-H522): 17 µM; GI50 [8]: > 100 µM; GI50 [9]: > 100 µM; GI50 (NCI-H226): 30 µM
13 µM,40 µM,50 µM,11 µM,40 µM,47 µM,> 100 µM,33 µM,6.1 µM,CCCCCCCCCCCC[C@@H](O)[C@H]1CC[C@H]([C@H](O)CCCCCCCCCCCCc2cncnc2)O1,56 µM,49 µM,17 µM,29 µM,39 µM,32 µM,4.1 µM,28 µM,52 µM,28 µM,16 µM,GI50 (HCT-116): 28 µM; GI50 (SF-295): 25 µM; GI50 (DU-145): 90 µM; GI50 (HCC 2998): 28 µM; GI50 [5]: > 100 µM; GI50 [6]: > 43 µM; GI50 (U-251): 61 µM; GI50 (MCF7): 34 µM; GI50 (MKN-74): 38 µM; GI50 (PC-3): 35 µM; GI50 (HT-29): 33 µM; GI50 (SF-539): 28 µM; GI50 [7]: 22 µM; GI50 (KM12): 36 µM; GI50 (A549): 42 µM; GI50 (NCI-H522): 13 µM; GI50 [8]: 29 µM; GI50 [9]: 34 µM; GI50 (NCI-H226): 22 µM
